# Laboratory results as given in patent US6770597B2, “Benzohydrazide derivatives as herbicides and desiccant compositions containing them” (Ishihara Sangyo Kaisha, Ltd., priority 2002, dated 2004).
# Tests used:
# Format in all cases: in vivo
# [1] = tested on: barnyardgrass (Echinochloa crus-galli, ECHCG); experiment: Greenhouse herbicide screen, post-emerge application, phytotoxicity rating; details: POST emergent, 14 days after application, scale 0-100
# How it was run: (§1)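 Sown 1 d (pre) or 8–21 d (post) ahead; sprayed 15–1000 g ai/ha in acetone, 187 l/ha; nozzle 40–45 cm above canopy/soil; scored 0–100 at day 14.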
# [2] = tested on: cocklebur (Xanthium strumarium, XANST); experiment: as above; details: POST emergent, 14 days after application, scale 0-100
# How it was run: as §1
# [3] = tested on: common ragweed (Ambrosia artemisiifolia L., AMBEL); experiment: as above; details: POST emergent, 14 days after application, scale 0-100
# How it was run: as §1
# [4] = tested on: green foxtail (Setaria viridis, SETVI); experiment: as above; details: POST emergent, 14 days after application, scale 0-100
# How it was run: as §1
# [5] = tested on: ivyleaf morningglory (Ipomoea hederacea, IPOHE); experiment: as above; details: POST emergent, 14 days after application, scale 0-100
# How it was run: as §1
# [6] = tested on: johnsongrass (Sorghum halepense, SORHA); experiment: as above; details: POST emergent, 14 days after application, scale 0-100
# How it was run: as §1
# [7] = tested on: lambsquarters (Chenopodium album, CHEAL); experiment: as above; details: POST emergent, 14 days after application, scale 0-100
# How it was run: as §1
# [8] = tested on: large crabgrass (Digitaria sanguinalis, DIGSA); experiment: as above; details: POST emergent, 14 days after application, scale 0-100
# How it was run: as §1
# [9] = tested on: redroot pigweed (Amaranthus retrofiexus, AMARE); experiment: as above; details: POST emergent, 14 days after application
# How it was run: as §1
# [10] = tested on: sicklepod (Cassia obtusifolia, CASOB); experiment: as above; details: POST emergent, 14 days after application, scale 0-100
# How it was run: as §1
# [11] = tested on: velvetleaf (Abutilon theophrasti, ABUTH); experiment: as above; details: POST emergent, 14 days after application, scale 0-100
# How it was run: as §1
# [12] = tested on: field corn (Zea mays L., var. Dekalb 535, CORN); experiment: Greenhouse herbicide screen, post-emerge application, crop damage rating; details: POST emergent, 14 days after application, scale 0-100
# How it was run: as §1
# [13] = tested on: upland rice (Oryza sp., var.Cocodrie, RICE); experiment: as above; details: POST emergent, 14 days after application, scale 0-100
# How it was run: as §1
# [14] = tested on: barnyardgrass (Echinochloa crus-galli, ECHCG); experiment: Greenhouse herbicide screen, pre-emerge application, phytotoxicity rating; details: PRE emergent, 14 days after application, rating scale 0-100
# How it was run: as §1
# [15] = tested on: cocklebur (Xanthium strumarium, XANST); experiment: as above; details: PRE emergent, 14 days after application, rating scale 0-100
# How it was run: as §1
# [16] = tested on: common ragweed (Ambrosia artemisiifolia L., AMBEL); experiment: as above; details: PRE emergent, 14 days after application, rating scale 0-100
# How it was run: as §1
# [17] = tested on: green foxtail (Setaria viridis, SETVI); experiment: as above; details: PRE emergent, 14 days after application, rating scale 0-100
# How it was run: as §1
# [18] = tested on: ivyleaf morningglory (Ipomoea hederacea, IPOHE); experiment: as above; details: PRE emergent, 14 days after application, rating scale 0-100
# How it was run: as §1
# [19] = tested on: johnsongrass (Sorghum halepense, SORHA); experiment: as above; details: PRE emergent, 14 days after application, rating scale 0-100
# How it was run: as §1
# [20] = tested on: lambsquarters (Chenopodium album, CHEAL); experiment: as above; details: PRE emergent, 14 days after application, rating scale 0-100
# How it was run: as §1
# [21] = tested on: large crabgrass (Digitaria sanguinalis, DIGSA); experiment: as above; details: PRE emergent, 14 days after application, rating scale 0-100
# How it was run: as §1
# [22] = tested on: redroot pigweed (Amaranthus retrofiexus, AMARE); experiment: as above; details: PRE emergent, 14 days after application, rating scale 0-100
# How it was run: as §1
# [23] = tested on: sicklepod (Cassia obtusifolia, CASOB); experiment: as above; details: PRE emergent, 14 days after application, rating scale 0-100
# How it was run: as §1
# [24] = tested on: velvetleaf (Abutilon theophrasti, ABUTH); experiment: as above; details: PRE emergent, 14 days after application, rating scale 0-100
# How it was run: as §1
# [25] = tested on: field corn (Zea mays L., var. Dekalb 535, CORN); experiment: Greenhouse herbicide screen, pre-emerge application, crop damage rating; details: PRE emergent, 14 days after application, rating scale 0-100
# How it was run: as §1
# [26] = tested on: upland rice (Oryza sp., var.Cocodrie, RICE); experiment: as above; details: PRE emergent, 14 days after application, rating scale 0-100
# How it was run: as §1
# [27] = 63 g ai/ha, scale 0-100 (0 no damage, 100 complete death)
compound,measurement,setting,value
C#CCOC(=NN=C(C(C)(C)C)C(C)(C)C)c1cc(-n2c(=O)cc(C(F)(F)F)n(C)c2=O)c(F)cc1Cl [Compound 5-7],phytotoxicity rating ECHCO,[1]; 63 g ai/ha,35
same,phytotoxicity rating ECHCO,[1]; 250 g ai/ha,55
same,phytotoxicity rating XANST,[2]; 63 g ai/ha,0
same,phytotoxicity rating XANST,[2]; 250 g ai/ha,55
same,phytotoxicity rating AMBEL,[3]; 63 g ai/ha,50
same,phytotoxicity rating AMBEL,[3]; 250 g ai/ha,55
same,phytotoxicity rating SETVI,[4]; 63 g ai/ha,50
same,phytotoxicity rating SETVI,[4]; 250 g ai/ha,55
same,phytotoxicity rating IPOHE,[5]; 63 g ai/ha,60
same,phytotoxicity rating IPOHE,[5]; 250 g ai/ha,70
same,phytotoxicity rating SORHA,[6]; 63 g ai/ha,0
same,phytotoxicity rating SORHA,[6]; 250 g ai/ha,15
same,phytotoxicity rating CHEAL,[7]; 63 g ai/ha,70
same,phytotoxicity rating CHEAL,[7]; 250 g ai/ha,85
same,phytotoxicity rating DIGSA,[8]; 63 g ai/ha,0
same,phytotoxicity rating DIGSA,[8]; 250 g ai/ha,50
same,phytotoxicity rating AMARE,[9]; [27],70
same,phytotoxicity rating AMARE,"[9]; 250 g ai/ha, scale 0-100",99
same,phytotoxicity rating CASOB,[10]; 63 g ai/ha,50
same,phytotoxicity rating CASOB,[10]; 250 g ai/ha,50
same,phytotoxicity rating ABUTH,[11]; 63 g ai/ha,30
same,phytotoxicity rating ABUTH,[11]; 250 g ai/ha,70
same,crop damage rating CORN,[12]; 63 g ai/ha,0
same,crop damage rating CORN,[12]; 250 g ai/ha,15
same,crop damage rating RICE,[13]; 63 g ai/ha,10
same,crop damage rating RICE,[13]; 250 g ai/ha,0
same,phytotoxicity rating ECHCG,[14]; 63 g ai/ha,0
same,phytotoxicity rating ECHCG,[14]; 250 g ai/ha,0
same,phytotoxicity rating XANST,[15]; 63 g ai/ha,0
same,phytotoxicity rating XANST,[15]; 250 g ai/ha,0
same,phytotoxicity rating AMBEL,[16]; 63 g ai/ha,0
same,phytotoxicity rating AMBEL,[16]; 250 g ai/ha,50
same,phytotoxicity rating SETVI,[17]; 63 g ai/ha,30
same,phytotoxicity rating SETVI,[17]; 250 g ai/ha,80
same,phytotoxicity rating IPOHE,[18]; 63 g ai/ha,0
same,phytotoxicity rating IPOHE,[18]; 250 g ai/ha,30
same,phytotoxicity rating SORHA,[19]; 63 g ai/ha,15
same,phytotoxicity rating SORHA,[19]; 250 g ai/ha,20
same,phytotoxicity rating CHEAL,[20]; 63 g ai/ha,100
same,phytotoxicity rating CHEAL,[20]; 250 g ai/ha,100
same,phytotoxicity rating DIGSA,[21]; 63 g ai/ha,0
same,phytotoxicity rating DIGSA,[21]; 250 g ai/ha,50
same,phytotoxicity rating AMARE,[22]; 63 g ai/ha,60
same,phytotoxicity rating AMARE,[22]; 250 g ai/ha,100
same,phytotoxicity rating CASOB,[23]; 63 g ai/ha,0
same,phytotoxicity rating CASOB,[23]; 250 g ai/ha,50
same,phytotoxicity rating ABUTH,[24]; 63 g ai/ha,50
same,phytotoxicity rating ABUTH,[24]; 250 g ai/ha,99
same,crop damage rating CORN,[25]; 63 g ai/ha,0
same,crop damage rating CORN,[25]; 250 g ai/ha,10
same,crop damage rating RICE,[26]; 63 g ai/ha,0
same,crop damage rating RICE,[26]; 250 g ai/ha,0
CN(NC(=O)c1cc(-n2c(=O)cc(C(F)(F)F)n(C)c2=O)c(F)cc1Cl)c1ccccc1 [Compound 1-9],phytotoxicity rating ECHCO,[1]; 63 g ai/ha,98
same,phytotoxicity rating ECHCO,[1]; 250 g ai/ha,100
same,phytotoxicity rating XANST,[2]; 63 g ai/ha,100
same,phytotoxicity rating XANST,[2]; 250 g ai/ha,100
same,phytotoxicity rating AMBEL,[3]; 63 g ai/ha,99
same,phytotoxicity rating AMBEL,[3]; 250 g ai/ha,100
same,phytotoxicity rating SETVI,[4]; 63 g ai/ha,60
same,phytotoxicity rating SETVI,[4]; 250 g ai/ha,95
same,phytotoxicity rating IPOHE,[5]; 63 g ai/ha,100
same,phytotoxicity rating IPOHE,[5]; 250 g ai/ha,100
same,phytotoxicity rating SORHA,[6]; 63 g ai/ha,75
same,phytotoxicity rating SORHA,[6]; 250 g ai/ha,99
same,phytotoxicity rating CHEAL,[7]; 63 g ai/ha,100
same,phytotoxicity rating CHEAL,[7]; 250 g ai/ha,100
same,phytotoxicity rating DIGSA,[8]; 63 g ai/ha,70
same,phytotoxicity rating DIGSA,[8]; 250 g ai/ha,95
same,phytotoxicity rating AMARE,[9]; [27],100
same,phytotoxicity rating AMARE,"[9]; 250 g ai/ha, scale 0-100",100
same,phytotoxicity rating CASOB,[10]; 63 g ai/ha,80
same,phytotoxicity rating CASOB,[10]; 250 g ai/ha,95
same,phytotoxicity rating ABUTH,[11]; 63 g ai/ha,100
same,phytotoxicity rating ABUTH,[11]; 250 g ai/ha,100
same,crop damage rating CORN,[12]; 63 g ai/ha,75
same,crop damage rating CORN,[12]; 250 g ai/ha,100
same,crop damage rating RICE,[13]; 63 g ai/ha,45
same,crop damage rating RICE,[13]; 250 g ai/ha,50
same,phytotoxicity rating ECHCG,[14]; 63 g ai/ha,40
same,phytotoxicity rating ECHCG,[14]; 250 g ai/ha,70
same,phytotoxicity rating XANST,[15]; 63 g ai/ha,20
same,phytotoxicity rating XANST,[15]; 250 g ai/ha,70
same,phytotoxicity rating AMBEL,[16]; 63 g ai/ha,50
same,phytotoxicity rating AMBEL,[16]; 250 g ai/ha,99
same,phytotoxicity rating SETVI,[17]; 63 g ai/ha,40
same,phytotoxicity rating SETVI,[17]; 250 g ai/ha,80
same,phytotoxicity rating IPOHE,[18]; 63 g ai/ha,60
same,phytotoxicity rating IPOHE,[18]; 250 g ai/ha,100
same,phytotoxicity rating SORHA,[19]; 63 g ai/ha,60
same,phytotoxicity rating SORHA,[19]; 250 g ai/ha,99
same,phytotoxicity rating CHEAL,[20]; 63 g ai/ha,99
same,phytotoxicity rating CHEAL,[20]; 250 g ai/ha,100
same,phytotoxicity rating DIGSA,[21]; 63 g ai/ha,50
same,phytotoxicity rating DIGSA,[21]; 250 g ai/ha,70
same,phytotoxicity rating AMARE,[22]; 63 g ai/ha,100
same,phytotoxicity rating AMARE,[22]; 250 g ai/ha,100
same,phytotoxicity rating CASOB,[23]; 63 g ai/ha,30
same,phytotoxicity rating CASOB,[23]; 250 g ai/ha,90
same,phytotoxicity rating ABUTH,[24]; 63 g ai/ha,95
same,phytotoxicity rating ABUTH,[24]; 250 g ai/ha,100
same,crop damage rating CORN,[25]; 63 g ai/ha,10
same,crop damage rating CORN,[25]; 250 g ai/ha,75
same,crop damage rating RICE,[26]; 63 g ai/ha,0
same,crop damage rating RICE,[26]; 250 g ai/ha,45
